Experimental data as given in patent publication US20100330029A1, “Cancer Treatments with Radiation and Immunocytokines” (Merck Patent GmbH, priority 2008, published 2010).

Legend:
[1] = tested on: Lewis lung carcinoma (LLC); experiment: tumor growth assay, Lewis lung carcinoma model; type: in vivo, mice; conditions: for Complete Response Rate: Sel 5 mg/kg d7, 8, 9, Ch/Rx = cisplatin 4 mg/kg d0 plus 3.6 Gy/d d0-4; for tumor growth / complete regressions: Experiments LLC-1, LLC-2, LLC-4
Description: LL/2 (LLC) cells, a murine Lewis lung carcinoma cell line, were maintained in DMEM, supplemented with 10% heat-inactivated fetal bovine serum, L-glutamine, penicillin/streptomycin (Life Technologies, Inc.) at 37° C. and 7% CO2. LLC cells were implanted in female C57BL/6 mice.
For the tumor growth assay, cells growing exponentially in culture were injected as a single cell suspension in 100 μl of PBS intramuscularly into the upper legs of the mice. In experiments using a dual tumor model, cells were also implanted in the flanks of the mice. […] In Experiment LLC-7, tumors were implanted in the flank until established. Mice were treated on days 0 to 9, then, on day 12, tumors were excised using survival surgery. Thereafter, animal survival was monitored. In Experiment LLC-14, tumors were implanted subcutaneously in the flank until established. Mice were treated on days 0 to 6 and day 17, and tumor size was measured twice weekly for the duration of the study.
Tumors were measured with calipers in three dimensions for the duration of the experiment. Tumor volumes were calculated using the equation:
Volume=4/3π(L/2×W/2×H/2) • where L=length, W=width and H=height of the tumor
For local irradiation, mice were anesthetized by intraperitoneal injection of a solution of 2% tribromoethanol/3% xylazine. The amount injected was 0.02 ml/gram of the recipient's weight. Mice were restrained so that only their tumor-bearing leg was exposed to radiation, while the reminder of the mouse was shielded. Tumors were irradiated with ^137Cs gamma radiation at a dose rate of 1 Gy/min using a Gammacell® 40 Exactor (Nordion, Ottawa, ON).
Data from the subcutaneous tumor growth assay are presented in graphic form depicting average and standard deviations (sd) of tumor volumes or weights during and after dosing. Animal weight changes were determined by subtracting the animal weight at each time point from the initial body weight, on day 0, then dividing by the initial body weight and multiplying by 100. Therefore a value of 0 indicates no weight change.
Student's 2-tailed t test or Mann-Whitney Rank Sum test, as appropriate, was performed on the individual tumor volumes or animal weights, to determine significant differences between treatment groups.

[2] = tested on: Lewis Lung Carcinoma cells; experiment: rechallenge of cured mice with Lewis Lung Carcinoma cells; type: in vivo
Description: The ability of irradiation followed by intravenous administration of the exemplary immunocytokine EMD521873 to generate a long lasting immune response was tested by rechallenging cured mice with tumor cells. Mice bearing Lewis Lung Carcinoma tumors were originally treated with either fractionated radiation (3.6 Gy/d, d0-4) plus cisplatin (4 mg/kg, d0), EMD521873 alone (5 mg/kg, d7, 8, 9), or the combination of EMD521873 plus chemoradiation.

[3] = tested on: non-small cell lung cancer; experiment: dose-escalation trial in non-small cell lung cancer; type: in vivo; conditions: human NSCLC; local irradiation 5×4 Gy then EMD521873 at a dose level below the MTD
Description: An dose-escalation trial is performed using EMD521873 in combination with local irradiation (20 Gy) of primary tumors or metastases in subjects with non-small cell lung cancer stage IIIb with malignant pleural effusion or stage IV with disease control (partial response or stable disease) after application of 4 cycles of platinum-based, first-line chemotherapy.
Subjects receive local irradiation (5×4 Gy) given over 5 consecutive days, prior to the first treatment cycle with EMD521873. After a 2-day treatment-free interval, intravenous infusions of EMD521873 are given on 3 consecutive days in 3-week cycles.
In each cycle, patients receive EMD521873 given as a once-daily, 1-h intravenous infusion on 3 consecutive days (days 1-3) followed by an 18-day treatment-free break (days 4-21).
Dose escalation of EMD521873 is performed in cohorts of 3 subjects at dose levels of 0.15, 0.30, and 0.45 mg/kg. Escalation to the next dose level is based on the number of dose limiting toxicities (DLTs) observed, if any, during the DLT evaluation period (i.e. the 21 days following the day of first infusion of […] in the first cycle). DLTs are defined as any grade ≧3 toxicity assessed as related to trial treatment (EMD521873 and/or radiation). If no DLT occurs in the 3 subjects, the next 3 subjects are recruited at the next highest dose level. […]

[4] = Experiment LLC-6, chemoradiation followed by EMD521873
[5] = LLC-3, EMD521873 with cisplatin plus 1.2 Gy/d
[6] = LLC-8, LLC-9, combination with chemoradiation
[7] = triple combination of chemoradiation plus EMD521873

## dI-NHS76γ2(h)(FN>AQ)-ala-IL2(D20T) [EMD521873]
[1]; Exp LLC-3
  Complete Response Rate: 0/6
[1]; Exp LLC-4
  Complete Response Rate: 1/8
[1]; Exp LLC-5
  Complete Response Rate: 0/6
[1]; [4]
  growth control of the irradiated lesion (leg tumor): good growth control
  growth control of the non-irradiated flank tumor: did not surpass that of EMD521873 alone
[1]; EMD521873 5 mg/kg d7, 8, 9 with radiation 3.6 Gy/d d0-4
  tumor growth: reduced tumor growth compared to any of the single treatments and to the other double treatments
[1]; EMD521873 with radiation
  complete regressions: 3/6
[1]; cisplatin 4 mg/kg d0 added to radiation/EMD521873
  tumor growth: further growth control
[1]; cisplatin added to radiation/EMD521873 (triple combination)
  complete regressions: 5/6
[1]; Experiments LLC-1, LLC-2, 3.6 Gy days 0-4 followed by EMD521873 5 mg/kg i.v. days 7, 8, 9
  complete responses: 3/6
[1]; Experiments LLC-1, LLC-2, EMD521873 monotherapy 5 mg/kg i.v. days 7, 8, 9
  complete responses: No complete responses
[1]; LLC-3, EMD521873 5 mg/kg d7, 8, 9 with cisplatin plus 0.4 Gy/d, vs EMD521873 alone or EMD521873 plus cisplatin
  tumor growth control: did not improve tumor growth control
[1]; [5]
  complete responses: no complete responses
  tumor growth control: improved growth control compared to either therapy alone
[1]; LLC-3, cisplatin plus 3.6 Gy/d in combination with EMD521873
  complete responses: 5/6
[1]; LLC-3, day 19, cisplatin plus 3.6 Gy/d in combination with EMD521873
  T/C: 0.02
[1]; LLC-3, day 19, single-arm groups: cisplatin plus 3.6 Gy/d without EMD521873, or EMD521873 alone
  T/C: 0.69
[1]; LLC-3, single-arm groups: cisplatin plus 3.6 Gy/d without EMD521873, or EMD521873 alone
  complete responses: 0/6
[1]; [6]
  animals with complete response: 4/6
[1]; LLC-8, LLC-9, day 21, combination with chemoradiation (cisplatin 4 mg/kg d0 plus 3.6 Gy/d d0-4)
  T/C: 0.03
[1]; LLC-10, 1 mg/kg EMD521873 d7, 8, 9 plus chemoradiation
  response rate (CRs): 2/8
[1]; LLC-10, 5 mg/kg EMD521873 d7, 8, 9 plus chemoradiation
  response rate (CRs): 3/8
[1]; LLC-10, 15 mg/kg EMD521873 d7, 8, 9 plus chemoradiation
  response rate (CRs): 3/8
[1]; LLC-10, 1, 5 and 15 mg/kg EMD521873 in combination with chemoradiation vs EMD521873 alone, chemoradiation alone, vehicle
  tumor volume (FIG. 9): similarly reduced tumor volume
[1]; LLC-11, EMD521873 5 mg/kg d0, 1, 2 followed by radiation for 1 or 2 weeks, vs EMD521873 or radiation alone
  tumor growth control: an increase in tumor growth control
[1]; LLC-11, EMD521873 followed by radiation for 1 or 2 weeks
  tumor regressions and complete responses: neither tumor regressions nor complete responses were achieved
[1]; LLC-12, EMD521873 5 mg/kg days 7, 8, 9 after a single week of radiation (3.6 Gy/d; d0, 2, 4)
  tumor regressions: a majority of tumor regressions
[1]; LLC-12, EMD521873 after a single week of radiation
  complete responses: no complete responses
[1]; LLC-12, EMD521873 during the 2nd week of a 2 week or 3 week course of radiation, vs EMD521873 or radiation alone
  tumor regressions and tumor growth control: tumor regressions and improved tumor growth control
[1]; LLC-13, cisplatin plus radiation for 1 week followed by EMD521873
  complete responses: 4/10
[1]; LLC-13, cisplatin plus radiation for three weeks prior to EMD521873
  complete responses: 0/10
[1]; LLC-13, cisplatin plus radiation for two weeks or three weeks prior to EMD521873
  tumor growth control: neither gave enhancement of tumor growth control compared to chemoradiation alone
[1]; LLC-13, cisplatin plus radiation for two weeks prior to EMD521873
  complete responses: 2/10
[1]; LLC-13, cisplatin plus radiation in the first week followed by EMD521873
  tumor growth control: enhancement of tumor growth control compared to either therapy alone
[1]; LLC-14, chemoradiation (cisplatin, 3.6 Gy/d d0-4) combined with immunocytokine on d6 and d17, EMD521873 5 mg/kg i.v., NHS-muIL12 10 μg/animal s.c.
  tumor growth (FIG. 6): enhanced the efficacy of EMD521873
[1]; immunocytokine administered with chemoradiation, compared to no treatment, chemoradiation alone, immunocytokine alone
  tumor growth (FIG. 7): a decrease in tumor growth
[1]; treatment alone
  complete regressions (FIG. 8): no complete regressions occurred
  tumor growth (FIG. 8): no decrease in tumor growth was seen
[1]; [7]
  complete regressions (FIG. 8): 9/9
  tumor volume (FIG. 8): a decrease in tumor volume
[2]; EMD521873/Chemoradiation treatment, s.c. LLC rechallenge after complete remission >50 days
  mice with complete response that did not regrow tumor on rechallenge: 12 out of 13
[2]; Exp LLC-4, cured C57BL/6 mice rechallenged with LLC cells
  Immunity to Rechallenge: 0/1
[2]; [6]
  mice with complete responses immune to rechallenge with LLC cells: Four out of 4
[3]
  rates of tumor response (CT or MRI scan): improved rates of tumor response
